Reference: ChEMBL document CHEMBL1201862, “PubChem BioAssay data set” (2004)
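Assay format: 96-well plates, 48-hour exposure. GI50 is the concentration that inhibits growth by half.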 Activity calls are given as the source filed them. Cut-off read from the data, not from the text of the source: active = GI50 up to about 1.1 µM and inactive = higher.

How the values were obtained:
Experiment in all cases: inhibition of tumour cell growth, NCI panel, 48 h
[1] = system: NCI-H522
[2] = system: OVCAR-4
[3] = system: ACHN
[4] = system: NCI/ADR-RES
[5] = system: SK-OV-3
[6] = system: SK-MEL-2
[7] = system: HCT-15
[8] = system: T47D
[9] = system: SNB-19
[10] = system: HCT-116
[11] = system: NCI-H23
[12] = system: LOX IMVI
[13] = system: UACC-257
[14] = system: SN12C
[15] = system: OVCAR-8
[16] = system: HCC 2998
[17] = system: MDA-MB-435
[18] = system: RPMI-8226
[19] = system: CAKI-1
[20] = system: SR

| Structure (SMILES) | GI50 [1] | GI50 [2] | GI50 [3] | GI50 [4] | GI50 [5] | GI50 [6] | GI50 [7] | GI50 [8] | GI50 [9] | GI50 [10] | GI50 [11] | GI50 [12] | GI50 [13] | GI50 [14] | GI50 [15] | GI50 [16] | GI50 [17] | GI50 [18] | GI50 [19] | GI50 [20] |
| --- | --- | --- | --- | --- | --- | --- | --- | --- | --- | --- | --- | --- | --- | --- | --- | --- | --- | --- | --- | --- |
| O=c1cc(N2CCOCC2)[nH]c(=O)n1-c1cccc(Cl)c1 | > 100 µM (inactive) | > 100 µM (inactive) | > 100 µM (inactive) | > 100 µM (inactive) | > 100 µM (inactive) | > 100 µM (inactive) | > 100 µM | > 100 µM (inactive) | > 100 µM (inactive) | > 100 µM (inactive) | > 100 µM (inactive) | > 100 µM (inactive) | > 100 µM (inactive) | > 100 µM (inactive) | > 100 µM (inactive) | > 100 µM (inactive) | > 100 µM (inactive) | > 100 µM (inactive) | > 100 µM (inactive) |  |
| CN1CCN(C2=C(Cl)C3(OCCS3)C(F)(F)C2(F)F)CC1 (stereo unspecified) | > 100 µM (inactive) | > 100 µM (inactive) | > 100 µM (inactive) | 79.6 µM (inactive) | > 100 µM (inactive) | > 100 µM (inactive) | 79.6 µM | 9.35 µM (inactive) | > 100 µM (inactive) | > 100 µM (inactive) | 27.1 µM (inactive) | 56 µM (inactive) | 27.2 µM (inactive) | > 100 µM (inactive) | > 100 µM (inactive) |  | > 100 µM (inactive) | 44.5 µM (inactive) | > 100 µM (inactive) | > 100 µM (inactive) |
| COc1cc2ccc1OCc1cccc(n1)COc1ccc(cc1OC)/C=N\c1ccc(cc1)/N=C\2 | > 100 µM (inactive) | > 100 µM (inactive) | > 100 µM (inactive) | > 100 µM (inactive) | > 100 µM (inactive) | > 100 µM (inactive) | > 100 µM | > 100 µM (inactive) | > 100 µM (inactive) | > 100 µM (inactive) | > 100 µM (inactive) | > 100 µM (inactive) | > 100 µM (inactive) | > 100 µM (inactive) | > 100 µM (inactive) | > 100 µM (inactive) | > 100 µM (inactive) |  | > 100 µM (inactive) | > 100 µM (inactive) |
| CC12CCC(C(Nc3cc(C(F)(F)F)cc(C(F)(F)F)c3)C1=O)C2(C)C (stereo unspecified) |  | > 100 µM (inactive) | > 100 µM (inactive) | > 100 µM (inactive) | > 100 µM (inactive) | > 100 µM (inactive) | > 100 µM | > 100 µM (inactive) | > 100 µM (inactive) | > 100 µM (inactive) | > 100 µM (inactive) | > 100 µM (inactive) | > 100 µM (inactive) |  | > 100 µM (inactive) | > 100 µM (inactive) | > 100 µM (inactive) | > 100 µM (inactive) | > 100 µM (inactive) | > 100 µM (inactive) |
| O=C1C(Cl)=C(N2CCSCC2)C(=O)c2c(O)ccc(O)c21 | 0.312 µM (active) | 0.552 µM (active) | 0.424 µM (active) | 0.1 µM (active) | 0.581 µM (active) | 0.204 µM (active) |  | 0.662 µM (active) |  | 0.307 µM (active) | 0.273 µM (active) | 0.186 µM (active) | 1.51 µM (inactive) |  |  |  | 0.631 µM (active) | 0.1 µM (active) | 0.528 µM (active) | 0.292 µM (active) |
| Cc1ccc(S(=O)(=O)N/N=C2\C=C[C@]3(CC2)C(=O)N(C)c2ccccc23)cc1 |  | > 100 µM (inactive) | > 100 µM (inactive) | > 100 µM (inactive) | > 100 µM (inactive) | > 100 µM (inactive) | > 100 µM | > 100 µM (inactive) | > 100 µM (inactive) | > 100 µM (inactive) | > 100 µM (inactive) | > 100 µM (inactive) | > 100 µM (inactive) | > 100 µM (inactive) | > 100 µM (inactive) | > 100 µM (inactive) | > 100 µM (inactive) | > 100 µM (inactive) | > 100 µM (inactive) | > 100 µM (inactive) |
| C[n+]1c(-c2ccc(/C=N/Nc3ccnc(N/N=C/c4ccc(-c5cn6ccccc6[n+]5C)cc4)n3)cc2)cn2ccccc21 | > 100 µM (inactive) | > 100 µM (inactive) | 25.3 µM (inactive) | 31.9 µM (inactive) | > 100 µM (inactive) |  | 98.9 µM | 54.8 µM (inactive) | 42.8 µM (inactive) | 20.7 µM (inactive) |  |  | 24.2 µM (inactive) | > 100 µM (inactive) | 82.4 µM (inactive) | > 100 µM (inactive) | > 10 µM (inactive) | 23.5 µM (inactive) |  | 59.4 µM (inactive) |
| O=C(NC1=C(Cl)C(=O)c2ccccc2C1=O)c1ccccc1 | 23.9 µM (inactive) | 45.1 µM (inactive) | 20.8 µM (inactive) | 18.5 µM (inactive) |  |  | 25.2 µM | 22.1 µM (inactive) | 54.2 µM (inactive) | 17.3 µM (inactive) | 23.8 µM (inactive) |  | > 10 µM (inactive) | 38.1 µM (inactive) | 43.2 µM (inactive) | 46.5 µM (inactive) | 18.9 µM (inactive) | 44.4 µM (inactive) |  | 38.4 µM (inactive) |
